ChEMBL document CHEMBL3045442, “Fungicidal activity of pipernonaline, a piperidine alkaloid derived from long pepper, Piper longum L., against phytopathogenic fungi” (2001)

How the values were obtained:
Type in all cases: functional
Design in all cases: scale not given: the % may be the effect or the level left
Phytophthora infestans [1] = assay: Fungicidal activity against Phytophthora infestans infected tomato assessed as reduction in tomato late blight disease at 50 mg/l applied for 1 day prior to infection relative to untreated control
Botrytis cinerea [2] = assay: Fungicidal activity against Botryotinia fuckeliana infected cucumber assessed as reduction in cucumber gray mold disease at 50 mg/l applied for 1 day prior to infection relative to untreated control
Puccinia recondita [3] = assay: Fungicidal activity against Puccinia recondita infected wheat assessed as reduction in wheat leaf rust disease at 500 mg/l applied for 1 day prior to infection relative to untreated control
Puccinia recondita [4] = assay: Fungicidal activity against Puccinia recondita infected wheat assessed as reduction in wheat leaf rust disease at 1000 mg/l applied for 1 day prior to infection relative to untreated control
Phytophthora infestans [5] = assay: Fungicidal activity against Phytophthora infestans infected tomato assessed as reduction in tomato late blight disease at 500 mg/l applied for 1 day prior to infection relative to untreated control
Rhizoctonia solani [6] = assay: Fungicidal activity against Rhizoctonia solani infected rice assessed as reduction in rice sheath blight disease at 1000 mg/l applied for 1 day prior to infection relative to untreated control
Phytophthora infestans [7] = assay: Fungicidal activity against Phytophthora infestans infected tomato assessed as reduction in tomato late blight disease at 1000 mg/l applied for 1 day prior to infection relative to untreated control
Pyricularia grisea [8] = assay: Fungicidal activity against Magnaporthe grisea infected rice assessed as reduction in rice blast disease at 1000 mg/l applied for 1 day prior to infection relative to untreated control
Pyricularia grisea [9] = assay: Fungicidal activity against Magnaporthe grisea infected rice assessed as reduction in rice blast disease at 500 mg/l applied for 1 day prior to infection relative to untreated control
Blumeria graminis [10] = assay: Fungicidal activity against Blumeria graminis infected barley assessed as reduction in powdery mildew disease at 1000 mg/l applied for 1 day prior to infection relative to untreated control
Blumeria graminis [11] = assay: Fungicidal activity against Blumeria graminis infected barley assessed as reduction in powdery mildew disease at 500 mg/l applied for 1 day prior to infection relative to untreated control
Botrytis cinerea [12] = assay: Fungicidal activity against Botryotinia fuckeliana infected cucumber assessed as reduction in cucumber gray mold disease at 1000 mg/l applied for 1 day prior to infection relative to untreated control
Rhizoctonia solani [13] = assay: Fungicidal activity against Rhizoctonia solani infected rice assessed as reduction in rice sheath blight disease at 500 mg/l applied for 1 day prior to infection relative to untreated control
Botrytis cinerea [14] = assay: Fungicidal activity against Botryotinia fuckeliana infected cucumber assessed as reduction in cucumber gray mold disease at 500 mg/l applied for 1 day prior to infection relative to untreated control
Puccinia recondita [15] = assay: Fungicidal activity against Puccinia recondita infected wheat assessed as reduction in wheat leaf rust disease at 250 mg/l applied for 1 day prior to infection relative to untreated control
Rhizoctonia solani [16] = assay: Fungicidal activity against Rhizoctonia solani infected rice assessed as reduction in rice sheath blight disease at 250 mg/l applied for 1 day prior to infection relative to untreated control
Botrytis cinerea [17] = assay: Fungicidal activity against Botryotinia fuckeliana infected cucumber assessed as reduction in cucumber gray mold disease at 250 mg/l applied for 1 day prior to infection relative to untreated control
Blumeria graminis [18] = assay: Fungicidal activity against Blumeria graminis infected barley assessed as reduction in powdery mildew disease at 250 mg/l applied for 1 day prior to infection relative to untreated control
Phytophthora infestans [19] = assay: Fungicidal activity against Phytophthora infestans infected tomato assessed as reduction in tomato late blight disease at 250 mg/l applied for 1 day prior to infection relative to untreated control
Pyricularia grisea [20] = assay: Fungicidal activity against Magnaporthe grise infected rice assessed as reduction in rice blast disease at 250 mg/l applied for 1 day prior to infection relative to untreated control

Compound | Activity (Phytophthora infestans [1]) [%] | Activity (Botrytis cinerea [2]) [%] | Activity (Puccinia recondita [3]) [%] | Activity (Puccinia recondita [4]) [%] | Activity (Phytophthora infestans [5]) [%] | Activity (Rhizoctonia solani [6]) [%] | Activity (Phytophthora infestans [7]) [%] | Activity (Pyricularia grisea [8]) [%] | Activity (Pyricularia grisea [9]) [%] | Activity (Blumeria graminis [10]) [%] | Activity (Blumeria graminis [11]) [%] | Activity (Botrytis cinerea [12]) [%] | Activity (Rhizoctonia solani [13]) [%] | Activity (Botrytis cinerea [14]) [%] | Activity (Puccinia recondita [15]) [%] | Activity (Rhizoctonia solani [16]) [%] | Activity (Botrytis cinerea [17]) [%] | Activity (Blumeria graminis [18]) [%] | Activity (Phytophthora infestans [19]) [%] | Activity (Pyricularia grisea [20]) [%]
N#Cc1c(Cl)c(Cl)c(Cl)c(C#N)c1Cl [CHLOROTHALONIL] | 95 | – | – | – | – | – | – | – | – | – | – | – | – | – | – | – | – | – | – | –
CN(C)S(=O)(=O)N(SC(F)(Cl)Cl)c1ccccc1 [DICHLOFLUANID] | – | 92 | – | – | – | – | – | – | – | – | – | – | – | – | – | – | – | – | – | –
C=CCc1ccc(O)c(OC)c1 [EUGENOL] | – | – | 0 | 0 | 0 | 0 | 0 | 0 | 0 | 5 | 0 | 0 | 0 | 0 | – | – | – | – | – | –
O=C(CCCC/C=C/c1ccc2c(c1)OCO2)N1CCCCC1 [PIPERETTINE] | – | – | 0 | 0 | 0 | 0 | 0 | 0 | 0 | 60 | 40 | 0 | 0 | 0 | – | – | – | – | – | –
O=C(/C=C/C=C/c1ccc2c(c1)OCO2)N1CCCCC1 [PIPERINE] | – | – | 0 | 0 | 0 | 0 | 0 | 0 | 0 | 0 | 0 | 0 | 0 | 0 | – | – | – | – | – | –
O=C(/C=C/CCCC/C=C/c1ccc2c(c1)OCO2)N1CCCCC1 [PIPERNONALINE] | – | – | 91 | 100 | 80 | 35 | 91 | 71 | 51 | 0 | 0 | 0 | 0 | 0 | 80 | 0 | 0 | 0 | 55 | 26
COc1cc(/C=C/C(=O)N2CCC=CC2=O)cc(OC)c1OC [PIPLARTINE] | – | – | 0 | 0 | 0 | 0 | 0 | 10 | 0 | 0 | 0 | 0 | 0 | 0 | – | – | – | – | – | –
